Test results as given in patent publication US12291504B2 (University of Pittsburgh—Of the Commonwealth System of …, priority 2018, dated 2025).

What was measured:
[1] = system: other major SULT isoforms found in liver and brain; experiment: Inhibition of SULT isoforms by CMP8 (FIG. 1); assay type: biochemical; conditions: at concentrations as high as 2 mM
Procedure: The initial rates of SULT catalyzed 1-HP sulfonation are plotted as a function of inhibitor concentration, and are normalized relative to [inhibitor]=0. Enzyme activity was monitored by the sulfonation dependent change in 1-HP fluorescence (λex=325 nm, λem=370 nm). Less than 5% of the concentration-limiting substrate converted at the reaction endpoint was consumed during initial-rate measurements. Each point is the average of three independent determinations. Conditions: SULT (20 nM, active sites), PAPS (0.50 mM, 17×Km), 1-HP (5.0 μM, 61×Km), KPO4 (50 mM), pH 7.5, 25±2° C.
Such inhibitors alleviate inhibition when used competitively against total inhibitors that bind at the same site. […] Given these favorable characteristics, it was reasoned that the CMP8-binding site offered a new target that could be used to control 1A3 activity. Consequently, the solution structure of the CMP8-binding site was determined using spin-label-triangulation NMR. As used herein, the “CMP8-binding site” refers to the SULT1A3 allosteric site defined herein, which is different from the catechin- and NSAID-binding sites.

[2] = biological target: T1, SULT1A3 L67G (Homo sapiens, UniProt P0DMM9, L67G); experiment: Binding-site mutation effect on Ki CMP8, L67G; assay type: biochemical; conditions: L67G versus wild type
T1 construct: N-His/GST/MBP triple-tag (N, cleaved yes); made in house; host or cells: E. coli BL21(DE3)
T1 sequence (P0DMM9 whole entry L67G): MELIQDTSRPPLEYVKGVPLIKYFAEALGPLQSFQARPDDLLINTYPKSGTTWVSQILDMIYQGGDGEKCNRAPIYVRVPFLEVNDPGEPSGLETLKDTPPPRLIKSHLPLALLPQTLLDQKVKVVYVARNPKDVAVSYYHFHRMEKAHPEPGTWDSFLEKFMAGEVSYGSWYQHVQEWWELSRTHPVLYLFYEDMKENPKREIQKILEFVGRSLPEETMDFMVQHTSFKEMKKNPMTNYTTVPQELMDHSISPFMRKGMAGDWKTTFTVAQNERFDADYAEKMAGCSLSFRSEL
Procedure: Initial-Rate Studies. Initial-rate parameters for the labeled or mutant SULT1A3 constructs were determined using a previously described 1-HP assay (25). Briefly, reactions were initiated by addition of PAPS (0.50 mM, 17×Km) to a solution containing enzyme (20 nM, active sites), 1-HP (2.0 μM, ˜24×Km), and KPO4 (50 mM), pH 7.5, 25±2° C. Reactions were monitored via fluorescence change associated with the conversion of 1-HP to 1-HP-S (λex=325 nm, λem=370 nm). Keq for the 1-HP sulfonation reaction is […]. Given the reaction conditions outlined above, ≥99% of 1-HP is converted to 1-HP-S, and ˜0.4% of PAPS is converted to PAP at equilibrium. […] Reaction progress curves were analyzed to obtain initial-rate parameters as described previously (26,27).
Inhibition studies. Inhibition parameters were determined under conditions identical to those described above (see, Initial-Rate Studies) except that [1-HP] was increased to 5.0 μM (˜61×Km) and inhibitor concentration was varied between 0.20-20×Ki. Ki was obtained using a least-squares fit to the following partial inhibition equation (25,28): v=kcat·(Ki+(1/kcat inh)·[I])/(Ki+[I]), where kcat inh is enzyme turnover at saturating substrates and allosteric inhibitor.
Confirming the Structure. The structure was validated by testing its ability to predict the consequences of mutations on the initial-rate parameters of the enzyme. […]

[3] = biological target: SULT1A3 spin-labeled at Cys 116 (Homo sapiens, UniProt P0DMM9, Q116C); experiment: Initial-rate parameters, spin-labeled SULT1A3 mutant 116
Chain of SULT1A3 spin-labeled at Cys 116 (P0DMM9 whole entry Q116C): as the sequence (P0DMM9 whole entry L67G) above, with G67L, Q116C counted along it
Procedure: (§1) Covalent Tagging of SULT1A3 Cys Constructs. Labeling of the SULT1A3 Cys constructs was performed as described previously (17,18,21). Briefly, 3-maleimido-PROXYL (spin label) or N-cyclohexylmaleimide (diamagnetic control) was added to an enzyme containing solution at 20-fold excess over reactive Cys. Unreacted Cys was monitored using DNTB (17,18,21); reactions were considered complete when >98% of the Cys was labeled. Reaction conditions: SULT1A3 (50 μM, monomer), 3-maleimido-PROXYL or N-cyclohexylmaleimide (1.0 mM), PAP (0.50 mM), KPO4 (50 mM), pH 7.5, 4±2° C. To prepare samples for NMR, reaction mixtures were dialyzed three times against 40 volumes of PAP (0.50 mM), KPO4 (50 mM), pD 7.4, D2O (>95%), 4±2° C.
(§2) Initial-Rate Studies. Initial-rate parameters for the labeled or mutant SULT1A3 constructs were determined using a previously described 1-HP assay (25). […] Reactions were monitored via fluorescence change associated with the conversion of 1-HP to 1-HP-S (λex=325 nm, λem=370 nm). Keq for the 1-HP sulfonation reaction is −250. Given the reaction conditions outlined above, ≥99% of 1-HP is converted to 1-HP-S, and ˜0.4% of PAPS is converted to PAP at equilibrium. […] Reaction progress curves were analyzed to obtain initial-rate parameters as described previously (26,27).

[4] = biological target: SULT1A3 spin-labeled at Cys 198 (Homo sapiens, UniProt P0DMM9, E198C); experiment: Initial-rate parameters, spin-labeled SULT1A3 mutant 198
Chain of SULT1A3 spin-labeled at Cys 198 (P0DMM9 whole entry E198C): as the sequence (P0DMM9 whole entry L67G) above, with G67L, E198C counted along it
Procedure: as §1, §2

[5] = biological target: SULT1A3 spin-labeled at Cys 234 (Homo sapiens, UniProt P0DMM9, K234C); experiment: Initial-rate parameters, spin-labeled SULT1A3 mutant 234
Chain of SULT1A3 spin-labeled at Cys 234 (P0DMM9 whole entry K234C): as the sequence (P0DMM9 whole entry L67G) above, with G67L, K234C counted along it
Procedure: as §1, §2

[6] = biological target: T2, SULT2A1 (Homo sapiens, UniProt Q06520); experiment: SULT2A1 inhibition test; assay type: biochemical; conditions: at 50 uM
T2 sequence (Q06520 1-285): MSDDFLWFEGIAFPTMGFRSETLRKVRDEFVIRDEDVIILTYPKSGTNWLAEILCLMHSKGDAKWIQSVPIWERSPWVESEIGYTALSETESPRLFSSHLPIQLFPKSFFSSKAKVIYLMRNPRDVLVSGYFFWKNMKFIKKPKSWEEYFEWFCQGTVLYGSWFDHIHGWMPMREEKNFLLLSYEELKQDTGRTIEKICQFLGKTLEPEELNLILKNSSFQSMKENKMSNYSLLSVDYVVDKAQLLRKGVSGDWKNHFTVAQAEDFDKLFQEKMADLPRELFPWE

[7] = biological target: SULT1A3 (Homo sapiens, UniProt P0DMM9); experiment: Dopamine sulfonation by SULT1A3-expressing HME cells; assay type: cell-based; conditions: dopamine 100 μM, 24 hours, best-fit titration curve, read-out: EC50, inhibition of dopamine sulfonation
Chain of SULT1A3 (P0DMM9 whole entry): as the sequence (P0DMM9 whole entry L67G) above, with G67L counted along it
Procedure: Cells were incubated with 100 μM dopamine and incubation media was sampled for dopamine and dopamine sulfate at the indicated time intervals. The dopamine and dopamine sulfate levels in the SULT1A3 (+) strain are shown as red and blue dots, respectively. Only dopamine (green dots) was detected using the SULT1A3 (−) strain.
HME cells were incubated with dopamine (100 μM) and Compound 12 (at the indicated concentrations) for 24 hours at which time the dopamine (red dots) and dopamine sulfate (blue dots) levels were determined. […] The chromatography was performed using a PFP-HPLC column. […] Further, the data in Table A reveal that Compound 12 is highly specific for the SULT1A3 isoform.
HME cells expressing SULT1A3 were incubated for 24 hours with dopamine (100 μM) and Compound 23 (at the indicated concentrations) at which time the dopamine (red dots) and dopamine sulfate (blue dots) concentrations were determined using the methods associated with FIG. 10B.

[8] = biological target: T3, Rat (1D1) (Rattus norvegicus, UniProt G3V9R3); experiment: Inhibition of SULT1A3 homologues in different species: Rat; assay type: biochemical
T3 sequence (G3V9R3 1-295): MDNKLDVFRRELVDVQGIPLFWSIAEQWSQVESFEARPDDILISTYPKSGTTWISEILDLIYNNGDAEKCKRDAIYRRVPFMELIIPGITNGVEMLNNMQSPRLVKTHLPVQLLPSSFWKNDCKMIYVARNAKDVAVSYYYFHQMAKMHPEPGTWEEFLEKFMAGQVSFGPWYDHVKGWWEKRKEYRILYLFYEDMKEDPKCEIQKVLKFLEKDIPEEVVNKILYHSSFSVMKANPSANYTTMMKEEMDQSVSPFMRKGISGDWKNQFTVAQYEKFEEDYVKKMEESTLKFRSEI
Procedure: Compounds 12, 23 and 25 were also tested for Inhibition of SULT1A3 in different species.
Inhibition of SULT1A3 Homologues in Different Species. SULT1A3 is only expressed in humans and higher primates. SULT1D1 is the isoform expressed in dogs and rodents that sulfonates neurotransmitters and is most similar to SULT1A3. Three synthesized allosteres (12, 23, and 25) were tested against both 1A3 and 1D1 from different species in order to explore testing in animal models. […] Mice have been engineered such that their SULT1A1/2 enzymes have been knocked out and replaced with the human versions of those isoforms.

| Structure (SMILES) | inhibition of other major SULT isoforms [1] | increase in Ki CMP8 [2] [fold] | Ki [3] [nM] | Ki [4] [nM] | Ki [5] [nM] | inhibition of SULT2A1 [6] | EC50 [7] [nM] | Rat (1D1) % inh [8] | Ki ([8]; parentheses one standard error) [nM] |
| --- | --- | --- | --- | --- | --- | --- | --- | --- | --- |
| CC(C)Cc1ccc2cc(CO)ccc2n1 [Compound 8, (2-Isobutylquinolin-6-yl)methanol] | does not detectably inhibit | 5.3 | 37 | 46 | 31 | – | – | – | – |
| CC(C)Cc1ccc2cc(CCC(N)=O)ccc2n1 [Compound 12] | – | – | – | – | – | no inhibition was detected | 250 ± 87 | 33 (4) % | 2500 |
